# Article PMC8222343, “A new non-classical fold of varroa odorant-binding proteins reveals a wide open internal cavity” (Scientific Reports, 2021)
# Columns and labels:
# Format in all cases: binding
# [1] = target: T1, VdesOBP2 (Varroa destructor, UniProt A0A7M7JBN7); assay: intrinsic tryptophan fluorescence quenching; conditions: excitation 295 nm, emission 335-340 nm
# T1 sequence (A0A7M7JBN7 16-163 limits assumed): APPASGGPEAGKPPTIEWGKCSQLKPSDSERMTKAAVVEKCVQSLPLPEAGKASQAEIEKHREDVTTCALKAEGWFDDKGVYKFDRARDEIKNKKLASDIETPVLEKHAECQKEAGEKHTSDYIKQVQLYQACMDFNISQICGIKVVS
# [2] = target: T2, VdesOBP1 (Varroa destructor, UniProt A0A7M7KVA6); assay: intrinsic tryptophan fluorescence quenching
# T2 construct: 147 residues; monomer
# T2 sequence (A0A7M7KVA6 16-162): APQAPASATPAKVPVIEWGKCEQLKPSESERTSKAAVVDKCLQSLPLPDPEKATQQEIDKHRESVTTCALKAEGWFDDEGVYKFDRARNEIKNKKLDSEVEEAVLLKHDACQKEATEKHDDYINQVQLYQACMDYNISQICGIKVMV
# [3] = target: T3, VdesOBP5 (Varroa destructor, UniProt A0A7M7KHR4); assay: fluorescent probe titration; conditions: read-out: KNPN
# T3 sequence (A0A7M7KHR4 22-231): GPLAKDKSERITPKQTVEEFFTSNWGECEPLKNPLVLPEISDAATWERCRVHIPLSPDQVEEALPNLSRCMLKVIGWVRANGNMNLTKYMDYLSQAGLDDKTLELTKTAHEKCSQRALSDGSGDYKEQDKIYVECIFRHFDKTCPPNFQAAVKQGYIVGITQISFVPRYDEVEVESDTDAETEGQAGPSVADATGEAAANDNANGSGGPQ
# Text: fluorescent probe titration on VdesOBP5 | with VdesOBP4 and VdesOBP5 we obtained clear binding curves using 1-NPN as the fluorescent reporter
# [4] = excitation 295 nm, emission 335-340 nm
Structure (SMILES),quenching of intrinsic tryptophan fluorescence [1],"quenching of intrinsic tryptophan fluorescence [2, 4]","quenching of intrinsic tryptophan fluorescence ([2]; dose-dependent quenching, probe emission itself unchanged)",Kd [3]
COc1cc(C=O)ccc1O [vanillin],they determined significant quenching of intrinsic tryptophan fluorescence in VdesOBP1 and VdesOBP2,they determined significant quenching of intrinsic tryptophan fluorescence in VdesOBP1 and VdesOBP2,–,–
c1ccc(Nc2cccc3ccccc23)cc1 [N-phenyl-1-naphthylamine],–,–,we observed a dose-dependent quenching of the intrinsic tryptophan fluorescence,4.3 µM
COc1cc(/C=C/C=O)ccc1O [coniferyl aldehyde],they determined significant quenching of intrinsic tryptophan fluorescence in VdesOBP1 and VdesOBP2,they determined significant quenching of intrinsic tryptophan fluorescence in VdesOBP1 and VdesOBP2,–,–
CC1=C(C=O)C(C)(C)CC=C1 [safranal],they determined significant quenching of intrinsic tryptophan fluorescence in VdesOBP1 and VdesOBP2,they determined significant quenching of intrinsic tryptophan fluorescence in VdesOBP1 and VdesOBP2,–,–
